The source made the active and inactive calls. The calls are words filed in the database; no cut-off is given here.
Columns and labels:
SW-620 = assay: Inhibition of colony formation in human SW620 cells at 50 nM after 14 days by crystal violet staining-based microscopic analysis; assay type: functional; conditions: SW-620, 336 h
[1] = molecular target: Mitogen-activated protein kinase 11 (Homo sapiens) (UniProt Q15759); assay: Inhibition of recombinant full-length human SAPK2b assessed as residual activity at 10 uM using myelin basic protein as substrate measured after 40 mins in presence of [gamma33P]ATP by scintillation counting method
[2] = molecular target: Protein kinase C delta type (Homo sapiens) (UniProt Q05655); assay: Inhibition of recombinant human PKCdelta (2 to end residues) assessed as residual activity at 10 uM using ERMRPRKRQGSVRRRV as substrate measured after 40 mins in presence of [gamma33P]ATP by scintillation counting method
Chain of Protein kinase C delta type (Homo sapiens) (Q05655 whole entry, looked up): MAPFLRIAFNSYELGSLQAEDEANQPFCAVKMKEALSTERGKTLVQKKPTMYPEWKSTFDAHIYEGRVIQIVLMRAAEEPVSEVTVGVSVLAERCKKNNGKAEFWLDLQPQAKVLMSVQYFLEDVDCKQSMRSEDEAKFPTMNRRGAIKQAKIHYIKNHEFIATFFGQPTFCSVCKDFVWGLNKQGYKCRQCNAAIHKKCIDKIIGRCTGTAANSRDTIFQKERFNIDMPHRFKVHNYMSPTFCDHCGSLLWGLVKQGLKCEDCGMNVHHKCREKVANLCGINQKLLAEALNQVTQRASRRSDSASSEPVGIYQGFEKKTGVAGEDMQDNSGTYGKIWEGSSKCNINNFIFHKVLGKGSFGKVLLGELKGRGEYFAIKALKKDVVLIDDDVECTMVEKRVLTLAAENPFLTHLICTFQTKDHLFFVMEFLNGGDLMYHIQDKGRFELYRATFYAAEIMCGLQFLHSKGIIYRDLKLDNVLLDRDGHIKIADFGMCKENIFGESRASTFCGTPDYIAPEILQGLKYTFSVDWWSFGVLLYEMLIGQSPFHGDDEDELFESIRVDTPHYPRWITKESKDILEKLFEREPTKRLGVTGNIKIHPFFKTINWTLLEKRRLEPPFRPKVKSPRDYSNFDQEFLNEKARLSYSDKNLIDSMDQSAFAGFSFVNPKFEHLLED

[3] = molecular target: Protein kinase C gamma type (Homo sapiens) (UniProt P05129); assay: Inhibition of recombinant full-length human PKCgamma assessed as residual activity at 10 uM using histone H1 as substrate measured after 40 mins in presence of [gamma33P]ATP by scintillation counting method
[4] = system: RAC-gamma serine/threonine-protein kinase (Homo sapiens), Q9Y243 [S472D]; assay: Inhibition of recombinant full-length human PKBgamma S472D mutant (117 to end residues) assessed as residual activity at 10 uM using GRPRTSSFAEGKK as substrate measured after 40 mins in presence of [gamma33P]ATP by scintillation counting method
Chain of RAC-gamma serine/threonine-protein kinase (Homo sapiens), Q9Y243 [S472D] (Q9Y243 whole entry S472D): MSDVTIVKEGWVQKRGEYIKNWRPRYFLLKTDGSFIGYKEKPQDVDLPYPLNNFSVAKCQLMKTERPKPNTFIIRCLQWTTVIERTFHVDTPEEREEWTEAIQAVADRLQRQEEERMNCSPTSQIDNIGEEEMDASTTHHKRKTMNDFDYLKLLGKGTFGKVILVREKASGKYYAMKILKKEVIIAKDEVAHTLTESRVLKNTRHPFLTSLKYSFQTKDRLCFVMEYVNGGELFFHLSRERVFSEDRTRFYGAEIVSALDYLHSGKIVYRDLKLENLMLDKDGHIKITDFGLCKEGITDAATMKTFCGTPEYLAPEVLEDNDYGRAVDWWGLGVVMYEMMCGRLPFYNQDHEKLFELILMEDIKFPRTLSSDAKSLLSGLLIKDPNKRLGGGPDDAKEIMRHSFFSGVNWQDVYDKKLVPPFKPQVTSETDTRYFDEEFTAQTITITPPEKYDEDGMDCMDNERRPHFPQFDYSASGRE

[5] = molecular target: Serine/threonine-protein kinase Nek6 (Homo sapiens) (UniProt Q9HC98); assay: Inhibition of recombinant human NEK6 (2 to end residues) assessed as residual activity at 10 uM using FLAKSFGSPNRAYKK as substrate measured after 40 mins in presence of [gamma33P]ATP by scintillation counting method
[6] = molecular target: Serine/threonine-protein kinase Nek1 (Homo sapiens) (UniProt Q96PY6); assay: Inhibition of recombinant human NEK1 (1 to 505 residues) assessed as residual activity at 10 uM using RLGRDKYKTLRQIRQ as substrate measured after 40 mins in presence of [gamma33P]ATP by scintillation counting method
[7] = system: Hepatocyte growth factor receptor (Homo sapiens), P08581 [D1228H]; assay: Inhibition of recombinant human MET A1209G/V1290L/D1246H mutant (974 to end residues) assessed as residual activity at 10 uM using KKKGQEEEYVFIE as substrate measured after 40 mins in presence of [gamma33P]ATP by scintillation counting method
[8] = molecular target: Dual specificity mitogen-activated protein kinase kinase 2 (Homo sapiens) (UniProt P36507); assay: Inhibition of recombinant full-length human MEK2 assessed as residual activity at 10 uM using MBP as substrate measured after 40 mins in presence of [gamma33P]ATP by scintillation counting method
Chain of Dual specificity mitogen-activated protein kinase kinase 2 (Homo sapiens) (P36507 whole entry): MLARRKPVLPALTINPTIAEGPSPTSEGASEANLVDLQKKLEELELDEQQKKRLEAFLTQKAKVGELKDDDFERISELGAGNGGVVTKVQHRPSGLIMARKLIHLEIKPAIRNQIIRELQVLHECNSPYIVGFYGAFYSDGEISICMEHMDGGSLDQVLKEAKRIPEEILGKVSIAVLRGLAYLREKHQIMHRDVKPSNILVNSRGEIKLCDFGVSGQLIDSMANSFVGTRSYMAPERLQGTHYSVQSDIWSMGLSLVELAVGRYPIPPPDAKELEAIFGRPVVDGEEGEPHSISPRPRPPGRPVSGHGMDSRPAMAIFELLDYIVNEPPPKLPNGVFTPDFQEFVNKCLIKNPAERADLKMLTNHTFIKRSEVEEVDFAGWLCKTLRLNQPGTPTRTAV

[9] = molecular target: Calcium/calmodulin-dependent protein kinase type 1B (Homo sapiens) (UniProt Q6P2M8); assay: Inhibition of recombinant full-length human CaMK1beta assessed as residual activity at 10 uM using calmodulin as substrate measured after 40 mins in presence of [gamma33P]ATP by scintillation counting method
Chain of Calcium/calmodulin-dependent protein kinase type 1B (Homo sapiens) (Q6P2M8 whole entry): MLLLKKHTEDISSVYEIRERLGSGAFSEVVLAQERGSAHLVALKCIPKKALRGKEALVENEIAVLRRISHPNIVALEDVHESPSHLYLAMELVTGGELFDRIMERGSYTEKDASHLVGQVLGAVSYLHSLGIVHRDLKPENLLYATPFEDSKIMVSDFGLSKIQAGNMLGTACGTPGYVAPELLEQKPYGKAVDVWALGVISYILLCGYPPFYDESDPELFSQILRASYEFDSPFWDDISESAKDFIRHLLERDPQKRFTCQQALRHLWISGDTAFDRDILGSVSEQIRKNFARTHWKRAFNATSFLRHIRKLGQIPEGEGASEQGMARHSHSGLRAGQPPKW

[10] = molecular target: Eukaryotic translation initiation factor 2-alpha kinase 1 (Homo sapiens) (UniProt Q9BQI3); assay: Inhibition of recombinant human HRI (140 to end residues) assessed as residual activity at 10 uM using RSRSRSRSRSRSRSR as substrate measured after 120 mins in presence of [gamma33P]ATP by scintillation counting method
HCT-116 [11] = assay: Induction of apoptosis in human HCT116 cells assessed as necrotic cells at 25 nM measured after 48 hrs by Annexin V-FITC/propidium iodide staining-based flow cytometry (reference value: 1.16%); assay type: functional
HCT-116 [12] = assay: Induction of apoptosis in human HCT116 cells assessed as increase in Bax expression up to 200 nM measured after 48 hrs by Western blot analysis; assay type: functional, cell-based
HCT-116 [13] = assay: Antitumor activity against human HCT116 cells xenografted in nude BALB/c mouse assessed as tumor growth inhibition at 80 mg/kg, po administered once daily for 4 weeks measured post-last dose relative to control; assay type: functional; conditions: HCT-116, po, 672 h, read-out: TGI
[14] = system: Casein kinase I isoform gamma-3 (Homo sapiens), Q9Y6M4 [UNDEFINED MUTATION]; assay: Inhibition of recombinant human CK1gamma3 K91E/R174G/E302D mutant (1 to 330 residues) assessed as residual activity at 10 uM using KRRRALS(p)VASLPGL as substrate measured after 40 mins in presence of [gamma33P]ATP by scintillation counting method
Chain of Casein kinase I isoform gamma-3 (Homo sapiens), Q9Y6M4 [UNDEFINED MUTATION] (Q9Y6M4 whole entry, looked up, stated change not applied, the tested form may be a part, canonical isoform): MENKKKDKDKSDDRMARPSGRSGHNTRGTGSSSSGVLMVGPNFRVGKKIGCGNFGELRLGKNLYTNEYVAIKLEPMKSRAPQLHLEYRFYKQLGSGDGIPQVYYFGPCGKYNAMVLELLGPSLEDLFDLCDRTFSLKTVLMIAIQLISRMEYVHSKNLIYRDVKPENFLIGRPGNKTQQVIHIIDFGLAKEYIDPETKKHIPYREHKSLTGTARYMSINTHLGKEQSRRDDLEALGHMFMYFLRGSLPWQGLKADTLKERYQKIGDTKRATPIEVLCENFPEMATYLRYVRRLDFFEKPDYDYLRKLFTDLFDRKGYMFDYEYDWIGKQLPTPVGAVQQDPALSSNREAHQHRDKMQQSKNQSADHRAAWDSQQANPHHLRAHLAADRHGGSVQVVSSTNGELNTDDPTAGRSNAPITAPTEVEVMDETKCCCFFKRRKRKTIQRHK

[15] = molecular target: Rhodopsin kinase GRK7 (Homo sapiens) (UniProt Q8WTQ7); assay: Inhibition of recombinant full-length human GRK7 assessed as residual activity at 10 uM using casein as substrate measured after 40 mins in presence of [gamma33P]ATP by scintillation counting method
Chain of Rhodopsin kinase GRK7 (Homo sapiens) (Q8WTQ7 whole entry): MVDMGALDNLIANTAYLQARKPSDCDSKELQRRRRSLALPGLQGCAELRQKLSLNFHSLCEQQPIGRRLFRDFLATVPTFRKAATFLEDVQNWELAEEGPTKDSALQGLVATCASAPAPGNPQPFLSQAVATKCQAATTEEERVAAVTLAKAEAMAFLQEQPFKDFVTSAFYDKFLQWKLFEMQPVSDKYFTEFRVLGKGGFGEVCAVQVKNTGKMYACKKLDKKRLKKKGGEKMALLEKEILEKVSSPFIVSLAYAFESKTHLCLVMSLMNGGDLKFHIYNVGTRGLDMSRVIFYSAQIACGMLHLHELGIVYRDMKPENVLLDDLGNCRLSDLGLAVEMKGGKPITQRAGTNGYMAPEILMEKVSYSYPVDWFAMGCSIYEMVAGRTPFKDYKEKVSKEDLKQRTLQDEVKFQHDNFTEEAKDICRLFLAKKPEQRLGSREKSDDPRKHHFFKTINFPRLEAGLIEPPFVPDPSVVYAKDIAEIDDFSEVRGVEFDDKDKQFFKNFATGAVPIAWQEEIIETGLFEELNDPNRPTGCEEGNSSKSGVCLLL

[16] = molecular target: Leucine-rich repeat serine/threonine-protein kinase 2 (Homo sapiens) (UniProt Q5S007); assay: Inhibition of recombinant human LRRK2 (970 to end residues) assessed as residual activity at 10 uM using RLGRDKYKTLRQIRQ as substrate measured after 40 mins in presence of [gamma33P]ATP by scintillation counting method
[17] = molecular target: Serine/threonine-protein kinase PAK 3 (Homo sapiens) (UniProt O75914); assay: Inhibition of recombinant full-length human PAK3 assessed as residual activity at 10 uM using RRRLSFAEPG as substrate measured after 40 mins in presence of [gamma33P]ATP by scintillation counting method
[18] = molecular target: [Pyruvate dehydrogenase (acetyl-transferring)] kinase isozyme 4, mitochondrial (Homo sapiens) (UniProt Q16654); assay: Inhibition of recombinant full-length human PDHK4 assessed as residual activity at 10 uM using KKKYHGHSMSDPGVSYRT as substrate measured after 40 mins in presence of [gamma33P]ATP by scintillation counting method
Chain of [Pyruvate dehydrogenase (acetyl-transferring)] kinase isozyme 4, mitochondrial (Homo sapiens) (Q16654 whole entry, looked up): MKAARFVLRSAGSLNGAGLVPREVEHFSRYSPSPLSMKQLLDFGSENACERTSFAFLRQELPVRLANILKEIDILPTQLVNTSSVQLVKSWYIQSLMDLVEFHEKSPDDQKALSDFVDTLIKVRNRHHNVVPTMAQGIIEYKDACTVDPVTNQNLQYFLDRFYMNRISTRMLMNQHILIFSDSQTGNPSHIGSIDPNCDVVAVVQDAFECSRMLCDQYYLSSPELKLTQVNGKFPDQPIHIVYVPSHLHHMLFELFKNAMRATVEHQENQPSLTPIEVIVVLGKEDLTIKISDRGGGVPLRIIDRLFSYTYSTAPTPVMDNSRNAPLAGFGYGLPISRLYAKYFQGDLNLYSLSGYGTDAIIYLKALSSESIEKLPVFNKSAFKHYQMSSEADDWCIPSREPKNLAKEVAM

[19] = molecular target: Serine/threonine-protein kinase 32C (Homo sapiens) (UniProt Q86UX6); assay: Inhibition of recombinant full-length human STK32C assessed as residual activity at 10 uM using casein as substrate measured after 120 mins in presence of [gamma33P]ATP by scintillation counting method
Chain of Serine/threonine-protein kinase 32C (Homo sapiens) (Q86UX6 whole entry): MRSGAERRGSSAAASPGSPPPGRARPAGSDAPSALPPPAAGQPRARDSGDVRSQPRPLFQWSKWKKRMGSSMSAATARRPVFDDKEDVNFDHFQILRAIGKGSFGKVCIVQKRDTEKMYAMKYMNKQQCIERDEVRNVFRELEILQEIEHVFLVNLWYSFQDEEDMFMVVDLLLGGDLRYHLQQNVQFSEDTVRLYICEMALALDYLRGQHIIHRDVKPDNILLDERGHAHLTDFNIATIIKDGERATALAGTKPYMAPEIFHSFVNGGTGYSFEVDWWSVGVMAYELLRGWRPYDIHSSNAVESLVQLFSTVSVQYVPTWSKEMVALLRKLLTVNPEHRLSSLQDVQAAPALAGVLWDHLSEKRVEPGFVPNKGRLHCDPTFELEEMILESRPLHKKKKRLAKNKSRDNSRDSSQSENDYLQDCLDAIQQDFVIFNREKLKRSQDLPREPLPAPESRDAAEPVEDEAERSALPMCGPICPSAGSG

[20] = molecular target: Non-receptor tyrosine-protein kinase TYK2 (Homo sapiens) (UniProt P29597); assay: Inhibition of human TYK2 (875 to end residues) using GGMEDIYFEFMGGKKK as substrate measured after 40 mins in presence of [gamma33P]ATP by scintillation counting method; set-up: scale not given: the % may be the effect or the level left
[21] = molecular target: Serine/threonine-protein kinase VRK2 (Homo sapiens) (UniProt Q86Y07); assay: Inhibition of human VRK2 (1 to 336 residues) using casein as substrate measured after 40 mins in presence of [gamma33P]ATP by scintillation counting method; set-up: scale not given: the % may be the effect or the level left
Chain of Serine/threonine-protein kinase VRK2 (Homo sapiens) (Q86Y07 whole entry, the tested form may be a part): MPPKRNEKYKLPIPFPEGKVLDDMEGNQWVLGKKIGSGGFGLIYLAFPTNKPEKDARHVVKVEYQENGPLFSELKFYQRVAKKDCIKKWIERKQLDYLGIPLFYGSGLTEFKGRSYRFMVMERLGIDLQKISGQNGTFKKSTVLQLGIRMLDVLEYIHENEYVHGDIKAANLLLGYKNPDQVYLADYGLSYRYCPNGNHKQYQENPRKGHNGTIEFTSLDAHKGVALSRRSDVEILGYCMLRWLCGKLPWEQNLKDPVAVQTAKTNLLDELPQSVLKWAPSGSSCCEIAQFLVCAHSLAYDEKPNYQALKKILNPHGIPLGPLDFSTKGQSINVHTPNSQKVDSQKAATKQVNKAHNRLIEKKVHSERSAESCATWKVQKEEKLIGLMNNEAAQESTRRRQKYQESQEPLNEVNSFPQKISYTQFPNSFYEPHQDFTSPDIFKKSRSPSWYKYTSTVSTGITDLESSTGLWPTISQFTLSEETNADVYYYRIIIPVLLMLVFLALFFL

[22] = molecular target: Phosphatidylinositol 4-phosphate 5-kinase type-1 alpha (Homo sapiens) (UniProt Q99755); assay: Inhibition of recombinant full-length human PIP5K1alpha assessed as residual activity at 10 uM using phosphatidylinositol 4-phosphate as substrate measured after 40 mins by HTRF assay
Chain of Phosphatidylinositol 4-phosphate 5-kinase type-1 alpha (Homo sapiens) (Q99755 whole entry): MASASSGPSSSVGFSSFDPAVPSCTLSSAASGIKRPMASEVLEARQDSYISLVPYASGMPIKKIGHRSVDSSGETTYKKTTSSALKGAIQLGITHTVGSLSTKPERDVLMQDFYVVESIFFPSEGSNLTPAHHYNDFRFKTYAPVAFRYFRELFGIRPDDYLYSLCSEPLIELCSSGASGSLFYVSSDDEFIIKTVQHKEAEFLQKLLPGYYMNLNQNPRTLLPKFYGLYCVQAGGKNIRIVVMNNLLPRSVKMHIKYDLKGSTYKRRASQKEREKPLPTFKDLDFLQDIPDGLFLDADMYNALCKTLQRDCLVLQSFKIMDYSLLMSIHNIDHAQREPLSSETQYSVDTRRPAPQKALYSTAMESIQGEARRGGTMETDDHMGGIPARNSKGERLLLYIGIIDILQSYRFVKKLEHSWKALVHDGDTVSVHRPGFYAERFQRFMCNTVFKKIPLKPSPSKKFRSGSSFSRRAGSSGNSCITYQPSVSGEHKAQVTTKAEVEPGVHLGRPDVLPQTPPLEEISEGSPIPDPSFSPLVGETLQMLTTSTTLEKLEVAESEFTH

HCT-116 [23] = assay: cells; conditions: Homo sapiens, HCT-116, 72 h
Description: Antiproliferative activity against human HCT116 cells after 72 hrs by MTT assay

Compound: Cc1cc(C)c(CNc2nc(Cl)nc3c2ncn3C2CCCC2)c(=O)[nH]1
- inhibition at 0.05 µM (SW-620): 100%
- Activity [1]: 100%
- Activity [2]: 111%
- Activity [3]: 108%
- Activity [4]: 91%
- Activity [5]: 108%
- Activity [6]: 114%
- Activity [7]: 108%
- Activity [8]: 109%
- Activity [9]: 107%
- Activity [10]: 102%
- Activity (HCT-116 [11]): 0.846%
- Activity (HCT-116 [12]): Active
- inhibition in vivo at 80 mg/kg (HCT-116 [13]): 71.6%
- Activity [14]: 106%
- Activity [15]: 102%
- Activity [16]: 100%
- Activity [17]: 134%
- Activity [18]: 95%
- Activity [19]: 97%
- Activity [20]: 95.5%
- Activity [21]: 102%
- Activity [22]: 100%
- IC50 (HCT-116 [23]): 60 nM
